The results in this text go back to patent US20230051589A1, “COMPOUNDS AND COMPOSITIONS FOR TREATING CONDITIONS ASSOCIATED WITH NLRP ACTIVITY” (Novartis AG, priority 2018, published 2023).

Molecules are shown by their SMILES.

One test relates to IL-1β production in PMA-differentiated THP-1 cells. The test can be described thus: IL-1β production in PMA-differentiated THP-1 cells stimulated with gramicidin (hTHP-1 assay, 2% fetal bovine serum; Procedures 1-3). In kind it is cell-based, human. The settings on record: Homo sapiens, THP-1, Table B3; hTHP-1 assay containing 2% fetal bovine serum, gramicidin stimulation, IL-1β readout; read-out: hTHP-1 IC50. The gist of the method:
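IL-1β released into supernatants was read by HTRF after 2 h gramicidin (5 μM) challenge. Before challenge, compounds (3-fold dilutions, top 100 μM, 0.37% DMSO) were given 1 h on THP-1 cells differentiated with PMA (20 ng/ml, 16-18 h) and held in 2% FBS medium.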
Turning to `NS(=O)(=NC(=O)Nc1c2c(cc3c1CC3)CCC2)c1sc2c(c1F)CNCC2` (stereo not shown) [Example 732, 3-Fluoro-N′-((2,4,5,6-tetrahydro-1H-cyclobuta[f]inden-3-yl)carbamoyl)-4,5,6,7-tetrahydrothieno[3,2-c]pyridine-2-sulfonimidamide], the concentration for half-maximal inhibition (IC50) (in general, the point on the concentration scale where inhibition reaches its midpoint) is 0.008 to 0.04 µM.

Regarding `NS(=O)(=NC(=O)Nc1c2c(cc3c1CCC3)CCC2)c1sc(C(O)(CO)CO)nc1CO` (stereo not shown) [Example 733, N′-((1,2,3,5,6,7-hexahydro-s-indacen-4-yl)carbamoyl)-4-(hydroxymethyl)-2-(1,2,3-trihydroxypropan-2-yl)thiazole-5-sulfonimidamide], the IC50 was in the range of 0.04 to 0.2 µM.

`CN(C)Cc1ccc(S(N)(=O)=NC(=O)Nc2c3c(cc4c2CCC4)CCC3)s1` (stereo not shown) [Example 735, 5-((Dimethylamino)methyl)-N-((1,2,3,5,6,7-hexahydro-s-indacen-4-yl)carbamoyl)thiophene-2-sulfonimidamide]: the IC50 was 1 to 5 µM.

`CCn1ccc(S(N)(=O)=NC(=O)Nc2c3c(cc4c2CCC4)CCC3)n1` (stereo not shown) [Example 736, 1-Ethyl-N′-((1,2,3,5,6,7-hexahydro-s-indacen-4-yl)carbamoyl)-1H-pyrazole-3-sulfonimidamide]: the IC50 lay in the range of 0.2 to 1 µM.

With `CCn1ccc(S(N)(=O)=NC(=O)Nc2c3c(cc4c2CC4)CCC3)n1` (stereo not shown) [Example 737, 1-Ethyl-N′-((2,4,5,6-tetrahydro-1H-cyclobuta[f]inden-3-yl)carbamoyl)-1H-pyrazole-3-sulfonimidamide], the IC50 was 0.2 to 1 µM.

Consider `CC(C)(O)c1nc(CO)c(S(N)(=O)=NC(=O)Nc2c3c(cc4c2C(=O)CC4)CCC3)s1` (stereo not shown) [Example 738, 4-(Hydroxymethyl)-2-(2-hydroxypropan-2-yl)-N-((3-oxo-1,2,3,5,6,7-hexahydro-s-indacen-4-yl)carbamoyl)thiazole-5-sulfonimidamide], for which the IC50 was in the range of 1 to 5 µM.

On to `CC(C)n1nc(S(N)(=O)=NC(=O)Nc2c3c(cc4c2C(=O)CC4)CCC3)cc1C(C)(C)O` (stereo not shown) [Example 740, 5-(2-Hydroxypropan-2-yl)-1-isopropyl-N′-((3-oxo-1,2,3,5,6,7-hexahydro-s-indacen-4-yl)carbamoyl)-1H-pyrazole-3-sulfonimidamide], for which the IC50 lay within 0.2 to 1 µM.

As for `C[C@](O)(CO)c1ncc(S(N)(=O)=NC(=O)Nc2c3c(cc4c2CC4)CCC3)s1` (stereo partly drawn) [Example 741, 2-((S)-1,2-dihydroxypropan-2-yl)-N′-((2,4,5,6-tetrahydro-1H-cyclobuta[f]inden-3-yl)carbamoyl)thiazole-5-sulfonimidamide], the half-inhibitory concentration (IC50) is 0.008 to 0.04 µM.

With `C[C@@](O)(CO)c1ncc(S(N)(=O)=NC(=O)Nc2c3c(cc4c2CC4)CCC3)s1` (stereo partly drawn) [Example 742, 2-((R)-1,2-dihydroxypropan-2-yl)-N′-((2,4,5,6-tetrahydro-1H-cyclobuta[f]inden-3-yl)carbamoyl)thiazole-5-sulfonimidamide], the IC50 was 0.008 to 0.04 µM.

With `C[C@@](O)(CO)c1ncc(S(N)(=O)=NC(=O)Nc2c3c(cc4c2C(=O)CC4)CCC3)s1` (stereo partly drawn) [Example 743, 2-((R)-1,2-dihydroxypropan-2-yl)-N′-((3-oxo-1,2,3,5,6,7-hexahydro-s-indacen-4-yl)carbamoyl)thiazole-5-sulfonimidamide], the IC50 lay within 0.2 to 1 µM.

Take `C[C@](O)(CO)c1ncc(S(N)(=O)=NC(=O)Nc2c3c(cc4c2C(=O)CC4)CCC3)s1` (stereo partly drawn) [Example 744, 2-((S)-1,2-dihydroxypropan-2-yl)-N′-((3-oxo-1,2,3,5,6,7-hexahydro-s-indacen-4-yl)carbamoyl)thiazole-5-sulfonimidamide]: the IC50 was in the range of 0.04 to 0.2 µM.

`C[C@](O)(COCCO)c1ccc([S@@](N)(=O)=NC(=O)Nc2c3c(cc4c2CCC4)CCC3)s1` [Example 748, (S)-N′-((1,2,3,5,6,7-hexahydro-s-indacen-4-yl)carbamoyl)-5-((S)-2-hydroxy-1-(2-hydroxyethoxy)propan-2-yl)thiophene-2-sulfonimidamide]: the IC50 lay within 0.04 to 0.2 µM.

With `C[C@](O)(COCCO)c1ccc([S@](N)(=O)=NC(=O)Nc2c3c(cc4c2CCC4)CCC3)s1` [Example 749, (R)-N′-((1,2,3,5,6,7-hexahydro-s-indacen-4-yl)carbamoyl)-5-((S)-2-hydroxy-1-(2-hydroxyethoxy)propan-2-yl)thiophene-2-sulfonimidamide], the IC50 was 0.2 to 1 µM.

For the compound `C[C@](O)(COCCOCCOCCOCCO)c1ncc(S(N)(=O)=NC(=O)Nc2c3c(cc4c2CCC4)CCC3)s1` (stereo partly drawn) [Example 750, 2-((S)-1,14-dihydroxy-3,6,9,12-tetraoxapentadecan-14-yl)-N′-((1,2,3,5,6,7-hexahydro-s-indacen-4-yl)carbamoyl)thiazole-5-sulfonimidamide], the IC50 is 5 to 30 µM.

Turning to `NS(=O)(=NC(=O)Nc1c2c(cc3c1CCC3)CCC2)c1cnc(C(O)(COCCO)COCCO)s1` (stereo not shown) [Example 751, N′-((1,2,3,5,6,7-hexahydro-s-indacen-4-yl)carbamoyl)-2-(2-hydroxy-1,3-bis(2-hydroxyethoxy)propan-2-yl)thiazole-5-sulfonimidamide], the IC50 fell in the range of 1 to 5 µM.

For the compound `CN(C)C1CCc2cc(S(N)(=O)=NC(=O)Nc3c4c(cc5c3CCC5)CCC4)sc2C1` (stereo not shown) [Example 752, 6-(Dimethylamino)-N′-((1,2,3,5,6,7-hexahydro-s-indacen-4-yl)carbamoyl)-4,5,6,7-tetrahydrobenzo[b]thiophene-2-sulfonimidamide], the IC50 lay in the range of 1 to 5 µM.

In the case of `CC(O)(CO)c1nc(CO)c(S(N)(=O)=NC(=O)Nc2c3c(cc4c2CCC4)CCC3)s1` (stereo not shown) [Example 753, 2-(1,2-Dihydroxypropan-2-yl)-N′-((1,2,3,5,6,7-hexahydro-s-indacen-4-yl)carbamoyl)-4-(hydroxymethyl)thiazole-5-sulfonimidamide], the IC50 fell in the range of 0.04 to 0.2 µM.

Take `CC(CO)(CO)c1ncc(S(N)(=O)=NC(=O)Nc2c3c(cc4c2CCC4)CCC3)s1` (stereo not shown) [Example 756, 2-(1,3-Dihydroxy-2-methylpropan-2-yl)-N′-((1,2,3,5,6,7-hexahydro-s-indacen-4-yl)carbamoyl)thiazole-5-sulfonimidamide]: the IC50 was 0.04 to 0.2 µM.

For `CC(O)(CO)c1nc(CO)c(S(N)(=O)=NC(=O)Nc2c3c(cc4c2CC4)CCC3)s1` (stereo not shown) [Example 757, 2-(1,2-Dihydroxypropan-2-yl)-4-(hydroxymethyl)-N′-((2,4,5,6-tetrahydro-1H-cyclobuta[f]inden-3-yl)carbamoyl)thiazole-5-sulfonimidamide], the IC50 lay in the range of 0.04 to 0.2 µM.

As for `NS(=O)(=NC(=O)Nc1c2c(cc3c1CCC3)CCC2)c1cc2c(s1)CCOC2` (stereo not shown) [Example 758, N′-((1,2,3,5,6,7-hexahydro-s-indacen-4-yl)carbamoyl)-6,7-dihydro-4H-thieno[3,2-c]pyran-2-sulfonimidamide], the IC50 is 0.2 to 1 µM.

Still in this test, the particulars now being: Table B3; hTHP-1 assay containing 2% fetal bovine serum, gramicidin stimulation, IL-1β readout; read-out: hTHP-1 IC50.
On to `CC1=CC(C)=[N+]2C1=Cc1ccc(CCC(=O)N(C)Cc3ccc([S@@](=N)(=O)NC(=O)Nc4c5c(cc6c4CCC6)CCC5)cc3)n1[B-]2(F)F` [Example 745, (S)-3-(5,5-difluoro-7,9-dimethyl-5H-5λ4,6λ4-dipyrrolo[1,2-c:2′,1′-f][1,3,2]diazaborinin-3-yl)-N-(4-(N′-((1,2,3,5,6,7-hexahydro-s-indacen-4-yl)carbamoyl)sulfamidimidoyl)benzyl)-N-methylpropanamide], for which the IC50 was in the range of 1 to 5 µM.

Consider `C[C@@](O)(CO)c1nc(CO)c(S(N)(=O)=NC(=O)Nc2c3c(cc4c2CCC4)CCC3)s1` (stereo partly drawn) [Example 754, 2-((R)-1,2-dihydroxypropan-2-yl)-N′-((1,2,3,5,6,7-hexahydro-s-indacen-4-yl)carbamoyl)-4-(hydroxymethyl)thiazole-5-sulfommidamide], for which the IC50 was 0.04 to 0.2 µM.
